Results published in patent publication US10226045B2, “Azoline compounds” (priority 2014, dated 2019).
Where two headings read alike, the source gives them in different places.

Assays:
Assay type in all cases: in vivo
[1] = test system: Vetch Aphid (Megoura viciae); assay: Vetch aphid, broad bean leaf disk test; settings: foliar, 120 h
Procedure: B.3 Vetch Aphid (Megoura viciae)
For evaluating control of vetch aphid (Megoura viciae) through contact or systemic means the test unit consisted of 24-well-microtiter plates containing broad bean leaf disks.
The compounds were formulated using a solution containing 75% v/v water and 25% v/v DMSO. Different concentrations of formulated compounds were sprayed onto the leaf disks at 2.5 μl, using a custom built micro atomizer, at two replications.
After application, the leaf disks were air-dried and 5-8 adult aphids placed on the leaf disks inside the microtiter plate wells. The aphids were then allowed to suck on the treated leaf disks and incubated at about 23±1° C. and about 50±5% relative humidity for 5 days. Aphid mortality and fecundity was then visually assessed.

[2] = test system: Mediterranean Fruitfly (Ceratitis capitata); assay: Mediterranean fruitfly, insect diet microtiter plate test; settings: 120 h
Procedure: B.6 Mediterranean Fruitfly (Ceratitis capitata)
For evaluating control of Mediterranean fruitfly (CeratitiS capitata) the test unit consisted of microtiter plates containing an insect diet and 50-80 C. capitata eggs. The compounds were formulated using a solution containing 75% v/v water and 25% v/v DMSO. Different concentrations of formulated compounds were sprayed onto the insect diet at 5 μl, using a custom built micro atomizer, at two replications.
(§1) After application, microtiter plates were incubated at about 28±1° C. and about 80±5% relative humidity for 5 days. Egg and larval mortality was then visually assessed.

[3] = test system: Diamond Back Moth (Plutella xylostella); assay: Diamond back moth, cabbage leaf dip test; settings: foliar
Procedure: B.1 Diamond Back Moth (Plutella xylostella)
The active compound was dissolved at the desired concentration in a mixture of 1:1 (vol:vol) distilled water:aceteone. Surfactant (Kinetic HV) was added at a rate of 0.01% (vol/vol). The test solution was prepared at the day of use.
Leaves of cabbage were dipped in test solution and air-dried. Treated leaves were placed in petri dishes lined with moist filter paper and inoculated with ten 3rd instar larvae. Mortality was recorded 72 hours after treatment.

[4] = test system: Orchid Thrips (dichromothrips corbetti); assay: Orchid thrips, floral-immersion technique
Procedure: B.7 Orchid Thrips (dichromothrips corbetti)
Dichromothrips corbetti adults used for bioassay were obtained from a colony maintained continuously under laboratory conditions. For testing purposes, the test compound is diluted in a 1:1 mixture of acetone:water (vol:vol), plus Kinetic HV at a rate of 0.01% v/v.
Thrips potency of each compound was evaluated by using a floral-immersion technique. All petals of individual, intact orchid flowers were dipped into treatment solution and allowed to dry in Petri dishes. Treated petals were placed into individual re-sealable plastic along with about 20 adult thrips. All test arenas were held under continuous light and a temperature of about 28° C. for duration of the assay. After 3 days, the numbers of live thrips were counted on each petal. The percent mortality was recorded 72 hours after treatment.

[5] = test system: Boll Weevil (Anthonomus grandis); assay: Boll weevil, insect diet microtiter plate test; settings: 120 h
Procedure: B.5 Boll Weevil (Anthonomus grandis)
For evaluating control of boll weevil (Anthonomus grandis) the test unit consisted of 96-well-microtiter plates containing an insect diet and 5-10 A. grandis eggs.
The compounds were formulated using a solution containing 75% v/v water and 25% v/v DMSO. Different concentrations of formulated compounds were sprayed onto the insect diet at 5 μl, using a custom built micro atomizer, at two replications.
After application, microtiter plates were incubated at about 25±1° C. and about 75±5% relative humidity for 5 days. Egg and larval mortality was then visually assessed.

[6] = test system: Tobacco Budworm (Heliothis virescens); assay: Tobacco budworm, insect diet microtiter plate test; settings: 120 h
Procedure: B.4 Tobacco Budworm (Heliothis virescens)
For evaluating control of tobacco budworm (HeliothiS virescens) the test unit consisted of 96-well-microtiter plates containing an insect diet and 15-25 H. virescens eggs.
The compounds were formulated using a solution containing 75% v/v water and 25% v/v DMSO. Different concentrations of formulated compounds were sprayed onto the insect diet at 10 μl, using a custom built micro atomizer, at two replications.
as §1

[7] = test system: Green Peach Aphid (Myzus persicae); assay: Green peach aphid, systemic test on artificial diet in microtiter plates; settings: 72 h
Excerpt: B.2 Green Peach Aphid (Myzus persicae)
For evaluating control of green peach aphid (Myzus persicae) through systemic means the test unit consisted of 96-well-microtiter plates containing liquid artificial diet under an artificial mem brane.
The compounds were formulated using a solution containing 75% v/v water and 25% v/v DMSO. Different concentrations of formulated compounds were pipetted into the aphid diet, using a custom built pipetter, at two replications.
After application, 5-8 adult aphids were placed on the artificial membrane inside the microtiter plate wells. The aphids were then allowed to suck on the treated aphid diet and incubated at about 23±1° C. and about 50±5% relative humidity for 3 days. Aphid mortality and fecundity was then visually assessed.

[8] = test system: Brown Marmorated Stink Bug (Halyomorpha halys); assay: Brown marmorated stink bug, sprayed peanuts and soybean seeds in cups; settings: 120 h
Procedure: B.13 Brown Marmorated Stink Bug (Halyomorpha halys)
(§2) The active compound was dissolved at the desired concentration in a mixture of 1:1 (vol:vol) distilled water: acetone. Surfactant (Kinetic HV) was added at a rate of 0.01% (vol/vol). The test solution was prepared at the day of use.
Row peanuts and soybean seeds were placed into microwavable plastic cups and inoculated with five adult stage H. halys. Using a hand atomizer, approximately 1 ml solution is sprayed into each cup, insects and food present. A water source was provided (cotton wick with water). Each treatment is replicated 4-fold. Assay arenas are kept at about 25° C. Percent mortality was recorded after 5 days.

[9] = test system: Rice Green Leafhopper (Nephotettix virescens); assay: Rice green leafhopper, sprayed rice seedlings; settings: 72 h
Procedure: B.8 Rice Green Leafhopper (Nephotettix virescens)
Rice seedlings were cleaned and washed 24 hours before spraying. The active compounds were formulated in 1:1 acetone:water (vol:vol), and 0.01% vol/vol surfactant (Kinetic HV) was added. Potted rice seedlings were sprayed with 5-6 ml test solution, air dried, covered with Mylar cages cages and inoculated with 10 adults. Treated rice plants were kept at about 28-29° C. and relative humidity of about 50-60%. Percent mortality was recorded after 72 hours.

[10] = test system: Green Soldier Stink Bug (Nezara viridula); assay: Green soldier stink bug, sprayed soybean pods in Petri dishes; settings: 120 h
Procedure: B.11 Green Soldier Stink Bug (Nezara viridula)
The active compound was dissolved at the desired concentration in a mixture of 1:1 (vol:vol) distilled water:acetone. Surfactant (Kinetic HV) was added at a rate of 0.01% (vol/vol). The test solution was prepared at the day of use.
Soybean pods were placed in glass Petri dishes lined with moist filter paper and inoculated with ten late 3rd instar N. viridula. Using a hand atomizer, approximately 2 ml solution is sprayed into each Petri dish. Assay arenas were kept at about 25° C. Percent mortality was recorded after 5 days.

[11] = test system: Neotropical Brown Stink Bug (Euschistus heros); assay: Neotropical brown stink bug, sprayed soybean pods in cups; settings: 120 h
Procedure: B.12 Neotropical Brown Stink Bug (Euschistus heros)
as §2
Soybean pods were placed in microwavable plastic cups and inoculated with ten adult stage E. heros. Using a hand atomizer, approximately 1 ml solution is sprayed into each cup, insects and food present. A water source was provided (cotton wick with water). Each treatment was replicated 2-fold. Assay arenas were kept at about 25° C. Percent mortality was recorded after 5 days.

[12] = test system: Red Spider Mite (Tetranychus kanzawai); assay: Red spider mite, sprayed cowpea beans; settings: 72 h
Procedure: B.9 Red Spider Mite (Tetranychus kanzawai)
The active compound was dissolved at the desired concentration in a mixture of 1:1 (vol:vol) distilled water:acetone. Add surfactant (Kinetic HV) was added at a rate of 0.01% (vol/vol). The test solution was prepared at the day of use.
Potted cowpea beans of 4-5 days of age were cleaned with tap water and sprayed with 1-2 ml of the test solution using air driven hand atomizer. The treated plants were allowed to air dry and afterwards inoculated with 30 or more mites by clipping a cassava leaf section from rearing population. Treated plants were placed inside a holding room at about 25-27° C. and about 50-60% relative humidity. Percent mortality was assessed 72 hours after treatment.

[13] = test system: Southern Armyworm (Spodoptera eridania); assay: Southern armyworm, sprayed lima bean plants; settings: 96 h
Procedure: B.10 Southern Armyworm (Spodoptera eridania)
The active compounds were formulated in cyclohexanone as a 10,000 ppm solution supplied in tubes. The tubes were inserted into an automated electrostatic sprayer equipped with an atomizing nozzle and they served as stock solutions for which lower dilutions were made in 50% acetone:50% water (v/v). A nonionic surfactant (Kinetic®) was included in the solution at a volume of 0.01% (v/v).
Lima bean plants (variety Sieva) were grown 2 plants to a pot and selected for treatment at the 1st true leaf stage. Test solutions were sprayed onto the foliage by an automated electrostatic plant sprayer equipped with an atomizing spray nozzle. The plants were dried in the sprayer fume hood and then removed from the sprayer. Each pot was placed into perforated plastic bags with a zip closure. About 10 to 11 armyworm larvae were placed into the bag and the bags zipped closed. Test plants were maintained in a growth room at about 25° C. and about 20-40% relative humidity for 4 days, avoiding direct exposure to fluorescent light (24 hour photoperiod) to prevent trapping of heat inside the bags. Mortality and reduced feeding were assessed 4 days after treatment, compared to untreated control plants.

[14] = 2500 ppm, eggs on sprayed insect diet, egg and larval mortality after 5 days, in comparison with untreated controls, read-out: mortality
[15] = 2500 ppm, adult aphids on treated artificial diet, 3 days, in comparison with untreated controls, read-out: mortality

COC(=O)c1ccc(C2=NOC(c3cc(Cl)c(F)c(Cl)c3)(C(F)(F)F)C2)c2c1CCC2 (centres unmarked) [Compound 1-1, Methyl 7-[5-(3,5-dichloro-4-fluoro-phenyl)-5-(trifluoromethyl)-4H-isoxazol-3-yl]indane-4-carboxylate]
≥ 75%: mortality at 2500 ppm [1] | mortality at 2500 ppm [2] | mortality at 300 ppm ([3]; 72 h) | mortality at 300 ppm ([4]; Thrips, 72 h) | mortality at 2500 ppm [5] | mortality at 2500 ppm [6]

O=C(O)c1ccc(C2=NOC(c3cc(Cl)c(F)c(Cl)c3)(C(F)(F)F)C2)c2c1CCC2 (centres unmarked) [Compound 1-2, 7-[5-(3,5-Dichloro-4-fluoro-phenyl)-5-(trifluoromethyl)-4H-isoxazol-3-yl]indane-4-carboxylic acid]
≥ 75%: mortality at 300 ppm ([3]; 72 h) | mortality at 2500 ppm [5] | mortality at 2500 ppm [6]

O=C(NCC1CC1)c1ccc(C2=NOC(c3cc(Cl)c(F)c(Cl)c3)(C(F)(F)F)C2)c2c1CCC2 (centres unmarked) [Compound 1-3, N-(Cyclopropylmethyl)-7-[5-(3,5-dichloro-4-fluoro-phenyl)-5-(trifluoromethyl)-4H-isoxazol-3-yl]indane-4-carboxamide]
≥ 75%: mortality at 2500 ppm [1] | mortality at 2500 ppm [2] | mortality at 300 ppm ([3]; 72 h) | mortality at 300 ppm ([4]; Thrips, 72 h) | mortality at 2500 ppm [5] | mortality at 2500 ppm [7] | mortality at 100 ppm [8] | mortality at 300 ppm [9] | mortality at 2500 ppm [6] | mortality at 300 ppm [10] | mortality at 100 ppm [11] | mortality at 300 ppm [12]

O=C(NCc1ccccn1)c1ccc(C2=NOC(c3cc(Cl)cc(Cl)c3)(C(F)(F)F)C2)c2c1CCC2 (centres unmarked) [Compound 1-27, 7-[5-(3,5-dichlorophenyl)-5-(trifluoromethyl)-4H-isoxazol-3-yl]-N-(2-pyridylmethyl)indane-4-carboxamide]
≥ 75%: mortality at 2500 ppm [1] | mortality at 2500 ppm [2] | mortality at 1 ppm [13] | mortality at 300 ppm ([3]; 72 h) | mortality at 300 ppm ([4]; Thrips, 72 h) | mortality at 2500 ppm [5] | mortality at 2500 ppm [7] | mortality at 100 ppm [8] | mortality at 300 ppm [9] | mortality at 2500 ppm [6] | mortality at 300 ppm [10] | mortality at 100 ppm [11] | mortality at 300 ppm [12]

O=C(O)c1ccc(C2=NCC(c3cc(Cl)c(F)c(Cl)c3)(C(F)(F)F)C2)c2c1CCC2 (centres unmarked) [Compound 2-1, 7-[3-(3,5-Dichloro-4-fluoro-phenyl)-3-(trifluoromethyl)-2,4-dihydropyrrol-5-yl]indane-4-carboxylic acid]
≥ 75%: mortality at 300 ppm ([3]; 300 ppm, 3rd instar larvae on dipped cabbage leaves, 72 hours after treatment, in comparison with untreated controls, read-out: mortality) | mortality at 2500 ppm [5, 14] | mortality at 2500 ppm [7, 15] | mortality at 2500 ppm [6, 14]

COC(=O)c1ccc(C2=NCC(c3cc(Cl)c(F)c(Cl)c3)(C(F)(F)F)C2)c2c1CCC2 (centres unmarked) [Compound 2-2, Methyl 7-[3-(3,5-dichloro-4-fluoro-phenyl)-3-(trifluoromethyl)-2,4-dihydropyrrol-5-yl]indane-4-carboxylate]
≥ 75%: mortality at 2500 ppm ([1]; 2500 ppm, adult aphids on sprayed broad bean leaf disks, 5 days, in comparison with untreated controls, read-out: mortality) | mortality at 300 ppm ([4]; 300 ppm, adult thrips on dipped orchid petals, 72 hours after treatment, in comparison with untreated controls, read-out: mortality) | mortality at 2500 ppm [5, 14] | mortality at 2500 ppm [7, 15] | mortality at 2500 ppm [6, 14]

O=C(O)c1ccc(C2=NOC(c3cc(Cl)cc(Cl)c3)(C(F)(F)F)C2)c2c1CCCC2 (centres unmarked) [Compound 3-2, 8-[5-(3,5-dichlorophenyl)-5-(trifluoromethyl)-4H-isoxazol-3-yl]tetralin-5-carboxylic acid]
≥ 75%: mortality at 2500 ppm [5]

O=C(NCC(F)(F)F)c1ccc(C2=NOC(c3cc(Cl)cc(Cl)c3)(C(F)(F)F)C2)c2c1CCCC2 (centres unmarked) [Compound 3-5, 8-[5-(3,5-dichlorophenyl)-5-(trifluoromethyl)-4H-isoxazol-3-yl]-N-(2,2,2-trifluoroethyl)tetralin-5-carboxamide]
≥ 75%: mortality at 2500 ppm [1] | mortality at 2500 ppm [2] | mortality at 300 ppm ([3]; 72 h) | mortality at 300 ppm ([4]; Thrips, 72 h) | mortality at 2500 ppm [5] | mortality at 2500 ppm [7] | mortality at 300 ppm [9] | mortality at 2500 ppm [6] | mortality at 300 ppm [12]
